Key:
FLT3 = target: T1, FLT3 (Homo sapiens, UniProt P36888); assay: Kinase selectivity, Z'-LYTE; format: biochemical
T1 construct: purchased Invitrogen (Life Technologies) SelectScreen Z'-LYTE
T1 sequence (P36888 27-993): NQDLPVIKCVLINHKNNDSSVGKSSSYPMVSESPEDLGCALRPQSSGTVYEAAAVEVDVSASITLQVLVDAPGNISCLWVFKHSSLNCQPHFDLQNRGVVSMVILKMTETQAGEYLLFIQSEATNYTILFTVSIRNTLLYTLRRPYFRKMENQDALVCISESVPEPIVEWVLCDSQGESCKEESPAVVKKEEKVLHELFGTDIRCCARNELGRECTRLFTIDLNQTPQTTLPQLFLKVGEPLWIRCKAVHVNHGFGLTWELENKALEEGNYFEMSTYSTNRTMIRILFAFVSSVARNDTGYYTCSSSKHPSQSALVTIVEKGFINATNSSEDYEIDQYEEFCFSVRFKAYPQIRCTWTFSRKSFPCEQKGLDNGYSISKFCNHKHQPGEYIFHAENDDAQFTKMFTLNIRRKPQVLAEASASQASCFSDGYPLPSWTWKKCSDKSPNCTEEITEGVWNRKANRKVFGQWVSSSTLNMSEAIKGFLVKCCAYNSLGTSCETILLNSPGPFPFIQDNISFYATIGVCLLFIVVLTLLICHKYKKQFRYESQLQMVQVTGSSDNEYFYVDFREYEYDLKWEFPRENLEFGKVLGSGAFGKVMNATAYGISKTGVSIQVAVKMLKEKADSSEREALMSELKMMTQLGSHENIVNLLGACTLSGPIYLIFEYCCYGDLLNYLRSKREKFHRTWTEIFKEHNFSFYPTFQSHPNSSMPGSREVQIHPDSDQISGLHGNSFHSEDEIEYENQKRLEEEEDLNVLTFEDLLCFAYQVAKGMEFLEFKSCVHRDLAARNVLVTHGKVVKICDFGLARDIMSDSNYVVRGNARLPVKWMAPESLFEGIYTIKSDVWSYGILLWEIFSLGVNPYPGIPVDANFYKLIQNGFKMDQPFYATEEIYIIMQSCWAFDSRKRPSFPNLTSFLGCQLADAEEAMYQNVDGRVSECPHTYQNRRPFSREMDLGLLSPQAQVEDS
Outline: (§1)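 Each recombinant kinase phosphorylates a peptide substrate under conditions optimized for that enzyme. A protease then cleaves only non-phosphorylated peptide, and the fluorescence change reports kinase activity.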

KDR (VEGFR2) = target: T2, KDR (VEGFR2) (Homo sapiens, UniProt P35968); assay: Kinase selectivity, Z'-LYTE; format: biochemical
T2 construct: purchased Invitrogen (Life Technologies) SelectScreen Z'-LYTE
Outline: as §1

MAPK1 (ERK2) = target: T3, MAPK1 (ERK2) (Homo sapiens, UniProt P28482); assay: Kinase selectivity, Z'-LYTE; format: biochemical
T3 construct: purchased Invitrogen (Life Technologies) SelectScreen Z'-LYTE
Outline: as §1

CDK1/cyclin B = target: T4, CDK1/cyclin B (Homo sapiens, UniProt P06493); assay: Kinase selectivity, Z'-LYTE; format: biochemical
T4 construct: purchased Invitrogen (Life Technologies) SelectScreen Z'-LYTE
Outline: as §1

PRKCB1 (PKC beta I) = target: T5, PRKCB1 (PKC beta I) (Homo sapiens, UniProt P05771); assay: Kinase selectivity, Z'-LYTE; format: biochemical
T5 construct: purchased Invitrogen (Life Technologies) SelectScreen Z'-LYTE
Outline: as §1

RP88KB1 (p70S6K) = target: T6, RP88KB1 (p70S6K) (Homo sapiens, UniProt P23443); assay: Kinase selectivity, Z'-LYTE; format: biochemical
T6 construct: purchased Invitrogen (Life Technologies) SelectScreen Z'-LYTE
Outline: as §1

SRC = target: T7, SRC (Homo sapiens, UniProt P12931); assay: Kinase selectivity, Z'-LYTE; format: biochemical
T7 construct: purchased Invitrogen (Life Technologies) SelectScreen Z'-LYTE
Outline: as §1

AKT1 (PKB alpha) = target: T8, AKT1 (PKB alpha) (Homo sapiens, UniProt P31749); assay: Kinase selectivity, Z'-LYTE; format: biochemical
T8 construct: purchased Invitrogen (Life Technologies) SelectScreen Z'-LYTE
Outline: as §1

[1] = target: T9, P1K3CA/PIK3R1 (p110 alpha) (Homo sapiens, UniProt P42336); assay: Kinase selectivity, Z'-LYTE; format: biochemical
T9 construct: purchased Invitrogen (Life Technologies) SelectScreen Z'-LYTE
Outline: as §1

CSNK1D (CK1 delta) = target: T10, CSNK1D (CK1 delta) (Homo sapiens, UniProt P48730); assay: Kinase selectivity, Z'-LYTE; format: biochemical
T10 construct: purchased Invitrogen (Life Technologies) SelectScreen Z'-LYTE
Outline: as §1

FGFR2 = target: T11, FGFR2 (Homo sapiens, UniProt P21802); assay: Kinase selectivity, Z'-LYTE; format: biochemical
T11 construct: purchased Invitrogen (Life Technologies) SelectScreen Z'-LYTE
Outline: as §1

MAPKAPK2 = target: T12, MAPKAPK2 (Homo sapiens, UniProt P49137); assay: Kinase selectivity, Z'-LYTE; format: biochemical
T12 construct: purchased Invitrogen (Life Technologies) SelectScreen Z'-LYTE
Outline: as §1

PAK2 (PAK65) = target: T13, PAK2 (PAK65) (Homo sapiens, UniProt Q13177); assay: Kinase selectivity, Z'-LYTE; format: biochemical
T13 construct: purchased Invitrogen (Life Technologies) SelectScreen Z'-LYTE
Outline: as §1

[2] = target: T14, MAPK14 (p38 alpha) Direct (Homo sapiens, UniProt Q16539); assay: Kinase selectivity, Z'-LYTE; format: biochemical
T14 construct: purchased Invitrogen (Life Technologies) SelectScreen Z'-LYTE
Outline: as §1

PRKCE (PKC epsilon) = target: T15, PRKCE (PKC epsilon) (Homo sapiens, UniProt Q02156); assay: Kinase selectivity, Z'-LYTE; format: biochemical
T15 construct: purchased Invitrogen (Life Technologies) SelectScreen Z'-LYTE
T15 sequence (Q02156 1-737): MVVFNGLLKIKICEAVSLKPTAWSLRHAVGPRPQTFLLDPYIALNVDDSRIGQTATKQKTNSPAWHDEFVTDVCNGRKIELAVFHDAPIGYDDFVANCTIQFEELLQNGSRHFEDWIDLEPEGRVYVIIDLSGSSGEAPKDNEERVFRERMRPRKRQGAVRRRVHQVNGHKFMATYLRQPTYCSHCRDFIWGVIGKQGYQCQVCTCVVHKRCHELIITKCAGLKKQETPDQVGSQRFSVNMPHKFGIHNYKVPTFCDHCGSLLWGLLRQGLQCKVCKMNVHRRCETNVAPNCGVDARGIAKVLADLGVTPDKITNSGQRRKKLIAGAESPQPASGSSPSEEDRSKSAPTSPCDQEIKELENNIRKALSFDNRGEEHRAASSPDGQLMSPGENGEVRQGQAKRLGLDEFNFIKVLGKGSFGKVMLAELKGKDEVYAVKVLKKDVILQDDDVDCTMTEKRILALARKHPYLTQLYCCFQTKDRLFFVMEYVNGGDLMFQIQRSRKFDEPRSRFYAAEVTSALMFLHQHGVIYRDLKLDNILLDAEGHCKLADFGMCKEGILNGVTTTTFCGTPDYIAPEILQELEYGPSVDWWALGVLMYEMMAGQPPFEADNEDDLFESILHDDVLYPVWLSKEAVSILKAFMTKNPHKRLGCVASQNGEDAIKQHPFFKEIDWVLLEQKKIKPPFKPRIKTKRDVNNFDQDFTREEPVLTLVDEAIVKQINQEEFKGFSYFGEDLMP
Outline: as §1

KT21 cells = assay: Apoptosis, Annexin V positive cells by flow cytometry; format: cell-based; settings: 3 days, vs DMSO
Protocol: For detection of apoptosis, subconfluent cells were plated in 60-mm plate and treated with inhibitors for 3 days. Cells were collected, washed and resuspended in 1x binding buffer with Annexin V-EGFP and propidium iodide (BioVision, CA) and incubated at room temperature for 5 min in dark. Apoptosis was measured using FACS with collecting 10,000 events per sample.

T2 sequence (P35968 20-1356): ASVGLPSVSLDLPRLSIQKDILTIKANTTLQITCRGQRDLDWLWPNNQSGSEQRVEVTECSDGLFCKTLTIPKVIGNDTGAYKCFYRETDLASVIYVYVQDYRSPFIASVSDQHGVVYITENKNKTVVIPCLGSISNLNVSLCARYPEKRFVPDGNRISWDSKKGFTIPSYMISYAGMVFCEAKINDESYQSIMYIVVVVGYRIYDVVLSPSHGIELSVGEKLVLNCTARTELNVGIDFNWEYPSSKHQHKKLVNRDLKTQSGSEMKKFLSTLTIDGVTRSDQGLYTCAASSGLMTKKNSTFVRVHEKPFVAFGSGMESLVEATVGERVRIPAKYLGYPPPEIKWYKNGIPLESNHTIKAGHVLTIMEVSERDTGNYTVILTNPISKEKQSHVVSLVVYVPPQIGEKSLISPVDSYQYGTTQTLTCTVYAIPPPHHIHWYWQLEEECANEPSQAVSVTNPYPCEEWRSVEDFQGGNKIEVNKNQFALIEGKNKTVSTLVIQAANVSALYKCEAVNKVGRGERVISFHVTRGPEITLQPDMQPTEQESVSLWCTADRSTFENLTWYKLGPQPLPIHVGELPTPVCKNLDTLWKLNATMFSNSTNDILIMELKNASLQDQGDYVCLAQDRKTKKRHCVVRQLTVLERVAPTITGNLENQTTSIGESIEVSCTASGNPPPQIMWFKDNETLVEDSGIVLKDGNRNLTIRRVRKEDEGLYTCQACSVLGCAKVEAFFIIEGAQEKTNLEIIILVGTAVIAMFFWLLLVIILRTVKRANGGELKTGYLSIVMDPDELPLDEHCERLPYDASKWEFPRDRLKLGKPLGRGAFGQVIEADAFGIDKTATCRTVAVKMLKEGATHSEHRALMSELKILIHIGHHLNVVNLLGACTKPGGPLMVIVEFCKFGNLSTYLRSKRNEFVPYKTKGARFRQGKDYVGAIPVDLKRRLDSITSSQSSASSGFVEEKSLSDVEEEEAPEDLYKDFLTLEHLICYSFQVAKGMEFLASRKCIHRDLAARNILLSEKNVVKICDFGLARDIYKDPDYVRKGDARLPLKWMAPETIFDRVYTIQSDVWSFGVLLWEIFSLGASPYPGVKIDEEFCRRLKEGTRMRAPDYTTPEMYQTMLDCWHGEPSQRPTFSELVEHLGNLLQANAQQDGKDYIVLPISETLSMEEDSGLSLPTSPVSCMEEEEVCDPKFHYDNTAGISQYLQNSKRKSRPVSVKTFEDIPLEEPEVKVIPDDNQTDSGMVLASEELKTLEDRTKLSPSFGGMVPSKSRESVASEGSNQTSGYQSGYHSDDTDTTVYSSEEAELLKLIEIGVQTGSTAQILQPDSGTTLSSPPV
T8 sequence (P31749 whole entry): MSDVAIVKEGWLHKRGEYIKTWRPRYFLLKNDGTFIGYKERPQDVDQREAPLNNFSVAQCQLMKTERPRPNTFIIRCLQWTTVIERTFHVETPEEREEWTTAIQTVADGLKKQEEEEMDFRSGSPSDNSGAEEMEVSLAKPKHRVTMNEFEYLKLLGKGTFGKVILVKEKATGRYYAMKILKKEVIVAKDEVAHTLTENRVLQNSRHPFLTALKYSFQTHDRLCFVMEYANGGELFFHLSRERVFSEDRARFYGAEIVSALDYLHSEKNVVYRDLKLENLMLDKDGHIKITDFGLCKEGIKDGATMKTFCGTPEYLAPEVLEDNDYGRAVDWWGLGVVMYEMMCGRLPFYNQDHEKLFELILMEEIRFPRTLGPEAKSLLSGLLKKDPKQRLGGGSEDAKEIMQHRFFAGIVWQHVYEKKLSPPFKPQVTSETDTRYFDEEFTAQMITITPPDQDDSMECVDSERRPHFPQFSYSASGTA
T10 sequence (P48730 whole entry): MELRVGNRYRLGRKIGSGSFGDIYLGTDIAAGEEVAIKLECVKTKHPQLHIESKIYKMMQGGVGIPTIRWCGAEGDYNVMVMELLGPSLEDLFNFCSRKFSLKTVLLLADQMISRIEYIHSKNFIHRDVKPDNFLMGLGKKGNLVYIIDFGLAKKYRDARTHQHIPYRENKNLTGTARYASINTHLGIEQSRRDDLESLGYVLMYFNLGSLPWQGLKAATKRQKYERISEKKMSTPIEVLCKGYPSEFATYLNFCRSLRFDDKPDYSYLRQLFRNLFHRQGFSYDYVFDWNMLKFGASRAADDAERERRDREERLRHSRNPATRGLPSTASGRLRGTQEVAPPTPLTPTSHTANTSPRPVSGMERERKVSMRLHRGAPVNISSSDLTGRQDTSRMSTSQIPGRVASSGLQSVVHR
T12 sequence (P49137 whole entry): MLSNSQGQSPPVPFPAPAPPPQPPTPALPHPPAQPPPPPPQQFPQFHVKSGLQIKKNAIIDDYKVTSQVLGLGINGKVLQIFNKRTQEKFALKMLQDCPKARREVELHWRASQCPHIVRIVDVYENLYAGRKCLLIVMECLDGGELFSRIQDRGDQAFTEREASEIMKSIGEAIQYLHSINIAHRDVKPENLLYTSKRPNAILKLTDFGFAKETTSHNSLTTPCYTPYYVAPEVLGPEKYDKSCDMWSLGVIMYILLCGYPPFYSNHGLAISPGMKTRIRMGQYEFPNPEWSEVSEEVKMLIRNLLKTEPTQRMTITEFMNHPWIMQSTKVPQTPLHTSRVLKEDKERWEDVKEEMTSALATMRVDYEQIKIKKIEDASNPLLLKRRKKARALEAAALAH
T13 sequence (Q13177 whole entry): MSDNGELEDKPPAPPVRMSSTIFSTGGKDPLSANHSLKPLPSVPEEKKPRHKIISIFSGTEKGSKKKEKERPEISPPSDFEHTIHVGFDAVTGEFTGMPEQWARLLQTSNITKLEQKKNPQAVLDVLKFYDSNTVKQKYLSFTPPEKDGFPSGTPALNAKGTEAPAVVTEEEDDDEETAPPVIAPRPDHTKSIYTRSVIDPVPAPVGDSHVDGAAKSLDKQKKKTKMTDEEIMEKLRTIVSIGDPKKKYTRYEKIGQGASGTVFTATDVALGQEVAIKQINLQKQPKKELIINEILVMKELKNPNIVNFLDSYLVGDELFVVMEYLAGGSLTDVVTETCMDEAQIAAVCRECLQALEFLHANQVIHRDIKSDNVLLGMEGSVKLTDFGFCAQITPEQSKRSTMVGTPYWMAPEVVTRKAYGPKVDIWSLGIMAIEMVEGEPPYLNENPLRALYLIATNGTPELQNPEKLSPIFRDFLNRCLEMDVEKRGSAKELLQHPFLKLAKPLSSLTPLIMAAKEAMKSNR
T4 sequence (P06493 whole entry): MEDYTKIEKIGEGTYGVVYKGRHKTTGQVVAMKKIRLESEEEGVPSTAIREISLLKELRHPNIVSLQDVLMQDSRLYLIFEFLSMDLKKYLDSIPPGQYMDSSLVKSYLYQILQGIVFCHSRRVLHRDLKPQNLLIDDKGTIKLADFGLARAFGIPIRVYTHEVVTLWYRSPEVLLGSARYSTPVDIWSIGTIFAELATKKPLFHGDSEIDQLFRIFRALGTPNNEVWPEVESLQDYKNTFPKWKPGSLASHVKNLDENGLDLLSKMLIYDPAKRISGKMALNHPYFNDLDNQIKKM
T4 sequence (P14635 whole entry partner): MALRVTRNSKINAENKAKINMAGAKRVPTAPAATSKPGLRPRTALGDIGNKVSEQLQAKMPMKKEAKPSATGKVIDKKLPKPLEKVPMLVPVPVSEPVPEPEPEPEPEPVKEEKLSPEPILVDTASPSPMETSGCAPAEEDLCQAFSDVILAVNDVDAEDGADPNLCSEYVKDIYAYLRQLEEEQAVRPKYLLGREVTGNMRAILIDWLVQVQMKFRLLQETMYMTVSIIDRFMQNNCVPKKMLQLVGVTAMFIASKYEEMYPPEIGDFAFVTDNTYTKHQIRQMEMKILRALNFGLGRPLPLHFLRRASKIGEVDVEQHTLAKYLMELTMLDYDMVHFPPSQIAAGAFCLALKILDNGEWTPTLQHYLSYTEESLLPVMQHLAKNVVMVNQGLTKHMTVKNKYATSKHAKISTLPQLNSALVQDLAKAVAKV
T6 sequence (P23443 whole entry): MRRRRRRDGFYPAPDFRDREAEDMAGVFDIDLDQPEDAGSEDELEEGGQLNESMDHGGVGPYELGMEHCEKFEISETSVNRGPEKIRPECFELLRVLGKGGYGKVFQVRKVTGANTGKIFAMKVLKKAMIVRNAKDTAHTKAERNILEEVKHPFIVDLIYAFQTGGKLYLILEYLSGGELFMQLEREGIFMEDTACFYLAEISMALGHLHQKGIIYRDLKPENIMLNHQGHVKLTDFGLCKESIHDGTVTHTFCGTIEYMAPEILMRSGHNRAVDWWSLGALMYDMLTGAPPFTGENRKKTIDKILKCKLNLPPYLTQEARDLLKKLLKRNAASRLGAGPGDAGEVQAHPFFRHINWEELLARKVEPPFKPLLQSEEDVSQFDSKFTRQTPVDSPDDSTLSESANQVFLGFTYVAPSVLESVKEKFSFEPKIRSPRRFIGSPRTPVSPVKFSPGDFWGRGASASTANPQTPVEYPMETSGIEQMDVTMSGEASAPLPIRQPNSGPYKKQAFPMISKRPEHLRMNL
T7 sequence (P12931 whole entry): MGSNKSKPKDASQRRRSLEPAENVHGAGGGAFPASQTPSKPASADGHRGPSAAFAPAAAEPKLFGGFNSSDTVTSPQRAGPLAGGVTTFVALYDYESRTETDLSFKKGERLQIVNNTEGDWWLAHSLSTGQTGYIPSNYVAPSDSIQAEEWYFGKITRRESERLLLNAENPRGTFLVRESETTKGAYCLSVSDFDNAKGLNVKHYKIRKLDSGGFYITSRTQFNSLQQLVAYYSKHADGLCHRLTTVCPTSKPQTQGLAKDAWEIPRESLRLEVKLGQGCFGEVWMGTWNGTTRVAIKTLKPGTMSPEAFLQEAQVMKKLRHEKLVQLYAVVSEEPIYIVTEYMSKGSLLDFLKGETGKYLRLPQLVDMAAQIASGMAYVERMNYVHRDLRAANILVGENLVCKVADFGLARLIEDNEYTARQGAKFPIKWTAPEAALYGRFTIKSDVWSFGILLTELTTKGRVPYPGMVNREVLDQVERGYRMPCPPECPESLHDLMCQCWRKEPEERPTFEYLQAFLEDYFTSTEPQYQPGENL

% inhibition of activity (FLT3)	% inhibition of activity (KDR (VEGFR2))	% inhibition of activity (MAPK1 (ERK2))	% inhibition of activity (CDK1/cyclin B)	% inhibition of activity (PRKCB1 (PKC beta I))	% inhibition of activity (RP88KB1 (p70S6K))	% inhibition of activity (SRC)	% inhibition of activity (AKT1 (PKB alpha))	% inhibition of activity [1]	% inhibition of activity (CSNK1D (CK1 delta))	% inhibition of activity (FGFR2)	% inhibition of activity (MAPKAPK2)	% inhibition of activity (PAK2 (PAK65))	% inhibition of activity [2]	% inhibition of activity (PRKCE (PKC epsilon))	Compound	number of apoptotic cells (KT21 cells)
10%	16%	5%	6%	18%	10%	16%	0%	0%	11%	15%	0%	98%	0%	25%	CCn1c(=O)c(-c2ccc(-c3cncc(C)n3)cc2Cl)cc2cnc(NCCC3CCN(C)CC3)nc21 [Frax1036]	substantial increase
78%	20%	23%	12%	58%	79%	74%	16%	0%	3%	72%	1%	100%	7%	62%	Cc1nc(Nc2[nH]nc3c2CN(C(=O)N[C@H](CN(C)C)c2ccccc2)C3(C)C)c2sccc2n1 [PF3758309, reference compound]	substantial increase

Compound	% inhibition of activity (FLT3)	% inhibition of activity (KDR (VEGFR2))	% inhibition of activity (MAPK1 (ERK2))	% inhibition of activity (CDK1/cyclin B)	% inhibition of activity (PRKCB1 (PKC beta I))	% inhibition of activity (RP88KB1 (p70S6K))	% inhibition of activity (SRC)	% inhibition of activity (AKT1 (PKB alpha))	% inhibition of activity [1]	% inhibition of activity (CSNK1D (CK1 delta))	% inhibition of activity (FGFR2)	% inhibition of activity (MAPKAPK2)	% inhibition of activity (PAK2 (PAK65))	% inhibition of activity [2]	% inhibition of activity (PRKCE (PKC epsilon))	number of apoptotic cells (KT21 cells)
CCn1c(=O)c(-c2ccc(-c3noc(C)n3)cc2Cl)cc2cnc(Nc3ccc(C4CCN(C)CC4)cc3)nc21 [Frax716]	92%	90%	7%	3%	9%	1%	97%	1%	−1%	6%	60%	7%	100%	10%	14%	substantial increase

From PMC4385830, “Group I Paks as therapeutic targets in NF2-deficient meningioma” (Oncotarget, 2015)
